Data as given in publication PMC5218480 (PLoS ONE, 2017).

Tested on: MV-4-11 cells
Assay: Gene expression microarray analysis (Affymetrix PrimeView) and GSEA
Assay type: cell-based, human
Parameters: RFU PODN (11730768_x_at) / Fold change /veh PODN (11730768_x_at) / RFU LINC00158 (11744669_a_at) / Fold change /veh LINC00158 (11744669_a_at) / RFU DUSP10 (11751237_a_at) / Fold change /veh DUSP10 (11751237_a_at) / RFU ID3 (11757404_x_at) / Fold change /veh ID3 (11757404_x_at) / RFU PLEKHG5 (11737974_s_at) / Fold change /veh PLEKHG5 (11737974_s_at) / RFU LRRC4B (11730491_at) / Fold change /veh LRRC4B (11730491_at) / RFU GIMAP4 (11747438_a_at) / Fold change /veh GIMAP4 (11747438_a_at) / RFU KRT8 (11758183_x_at) / Fold change /veh KRT8 (11758183_x_at) / RFU CNN1 (11734310_a_at) / Fold change /veh CNN1 (11734310_a_at) / RFU VPS37D (11726825_at) / Fold change /veh VPS37D (11726825_at) / RFU C10orf10 (11716522_x_at) / Fold change /veh C10orf10 (11716522_x_at) / RFU KIR2DL2 /// KIR2DL4 /// KIR2DL5A /// KIR2DL5B /// KIR2DS1 /// KIR2DS2 /// KIR2DS3 /// KIR2DS4 /// KIR3DL3 /// KIR3DL3 /// KIR3DS1 (11738374_at) / Fold change /veh KIR2DL2 /// KIR2DL4 /// KIR2DL5A /// KIR2DL5B /// KIR2DS1 /// KIR2DS2 /// KIR2DS3 /// KIR2DS4 /// KIR3DL3 /// KIR3DL3 /// KIR3DS1 (11738374_at) / RFU C1QL1 (11718748_at) / Fold change /veh C1QL1 (11718748_at) / RFU TMPRSS4 (11747572_a_at) / Fold change /veh TMPRSS4 (11747572_a_at) / RFU HAMP (11756126_x_at) / Fold change /veh HAMP (11756126_x_at) / RFU RNFT2 (11725882_a_at) / Fold change /veh RNFT2 (11725882_a_at) / RFU NR4A2 (11747474_a_at) / Fold change /veh NR4A2 (11747474_a_at) / RFU ABCC12 (11746883_a_at) / Fold change /veh ABCC12 (11746883_a_at) / RFU TMEM136 (11760407_x_at) / Fold change /veh TMEM136 (11760407_x_at) / RFU CLDN22 /// WWC2 (11732394_at) / Fold change /veh CLDN22 /// WWC2 (11732394_at) / RFU HLA-DPB1 (11760878_x_at) / Fold change /veh HLA-DPB1 (11760878_x_at) / RFU SPINT1 (11716480_a_at) / Fold change /veh SPINT1 (11716480_a_at) / RFU GAP43 (11754022_s_at) / Fold change /veh GAP43 (11754022_s_at) / RFU A4GNT (11735810_at) / Fold change /veh A4GNT (11735810_at) / RFU PRB3 (11715151_x_at) / Fold change /veh PRB3 (11715151_x_at) / RFU TUBB4B (11761932_at) / Fold change /veh TUBB4B (11761932_at) / RFU CAPN14 (11732068_a_at) / Fold change /veh CAPN14 (11732068_a_at) / RFU TMCC2 (11721928_a_at) / Fold change /veh TMCC2 (11721928_a_at) / RFU IRGQ (11745062_a_at) / Fold change /veh IRGQ (11745062_a_at) / RFU FAM174B (11720279_a_at) / Fold change /veh FAM174B (11720279_a_at) / RFU TMPRSS4 (11748680_a_at) / Fold change /veh TMPRSS4 (11748680_a_at) / RFU FAM212B (11763350_a_at) / Fold change /veh FAM212B (11763350_a_at) / RFU PLEKHG5 (11743358_a_at) / Fold change /veh PLEKHG5 (11743358_a_at) / RFU ZSCAN30 (11745921_a_at) / Fold change /veh ZSCAN30 (11745921_a_at) / RFU CMKLR1 (11741424_a_at) / Fold change /veh CMKLR1 (11741424_a_at) / RFU LOC101060620 /// MAPK8IP1 (11723275_at) / Fold change /veh LOC101060620 /// MAPK8IP1 (11723275_at) / RFU SPTSSB (11747773_x_at) / Fold change /veh SPTSSB (11747773_x_at) / RFU PRSS12 (11739890_at) / Fold change /veh PRSS12 (11739890_at) / RFU BIN1 (11741810_x_at) / Fold change /veh BIN1 (11741810_x_at) / RFU WNT11 (11732464_a_at) / Fold change /veh WNT11 (11732464_a_at) / RFU C10orf10 (11716521_a_at) / Fold change /veh C10orf10 (11716521_a_at) / RFU C5orf56 (11738089_at) / Fold change /veh C5orf56 (11738089_at) / RFU CYB561 (11721691_x_at) / Fold change /veh CYB561 (11721691_x_at) / RFU ANKRD19P (11752326_a_at) / Fold change /veh ANKRD19P (11752326_a_at) / RFU OR2T12 /// OR2T33 /// OR2T8 (11738714_s_at) / Fold change /veh OR2T12 /// OR2T33 /// OR2T8 (11738714_s_at) / RFU VCAN (11748164_a_at) / Fold change /veh VCAN (11748164_a_at) / RFU JSRP1 (11732532_at) / Fold change /veh JSRP1 (11732532_at) / RFU KRTAP10-11 (11738290_x_at) / Fold change /veh KRTAP10-11 (11738290_x_at) / RFU MYO3A (11730013_a_at) / Fold change /veh MYO3A (11730013_a_at) / RFU EBF3 (11725865_a_at) / Fold change /veh EBF3 (11725865_a_at) / RFU CAMK2N1 (11719241_x_at) / Fold change /veh CAMK2N1 (11719241_x_at) / RFU C5orf56 (11738088_a_at) / Fold change /veh C5orf56 (11738088_a_at) / RFU OLFML3 (11715873_a_at) / Fold change /veh OLFML3 (11715873_a_at) / RFU LOC100653217 /// NTM (11731650_a_at) / Fold change /veh LOC100653217 /// NTM (11731650_a_at) / RFU MAPK11 (11762145_a_at) / Fold change /veh MAPK11 (11762145_a_at) / RFU FIZ1 (11724087_x_at) / Fold change /veh FIZ1 (11724087_x_at) / RFU OASL (11726364_x_at) / Fold change /veh OASL (11726364_x_at) / RFU SOX15 (11748057_x_at) / Fold change /veh SOX15 (11748057_x_at) / RFU CD79A (11719716_a_at) / Fold change /veh CD79A (11719716_a_at) / RFU HIST1H1D (11736915_at) / Fold change /veh HIST1H1D (11736915_at) / RFU CASKIN2 (11723855_a_at) / Fold change /veh CASKIN2 (11723855_a_at) / RFU LOC730098 (11760151_x_at) / Fold change /veh LOC730098 (11760151_x_at) / RFU OR4N2 (11742367_at) / Fold change /veh OR4N2 (11742367_at) / RFU PRRT2 (11749266_a_at) / Fold change /veh PRRT2 (11749266_a_at) / RFU SNX32 (11753110_a_at) / Fold change /veh SNX32 (11753110_a_at) / RFU CDHR5 (11726645_a_at) / Fold change /veh CDHR5 (11726645_a_at) / RFU RCAN1 (11760418_a_at) / Fold change /veh RCAN1 (11760418_a_at) / RFU FAM167A (11723789_a_at) / Fold change /veh FAM167A (11723789_a_at) / RFU FAM26E (11764081_at) / Fold change /veh FAM26E (11764081_at) / RFU ISYNA1 (11749810_s_at) / Fold change /veh ISYNA1 (11749810_s_at) / RFU ACY1 (11761880_at) / Fold change /veh ACY1 (11761880_at) / RFU 11764098_at / Fold change /veh 11764098_at / RFU SAMD14 (11745864_x_at) / Fold change /veh SAMD14 (11745864_x_at) / RFU NPB (11741838_a_at) / Fold change /veh NPB (11741838_a_at) / RFU TMPRSS6 (11731388_a_at) / Fold change /veh TMPRSS6 (11731388_a_at) / RFU KRTAP10-2 (11738614_at) / Fold change /veh KRTAP10-2 (11738614_at) / RFU ARHGAP8 /// PRR5-ARHGAP8 (11727945_x_at) / Fold change /veh ARHGAP8 /// PRR5-ARHGAP8 (11727945_x_at) / RFU KRTAP5-7 /// NADSYN1 (11734609_at) / Fold change /veh KRTAP5-7 /// NADSYN1 (11734609_at) / RFU RASL12 (11751679_a_at) / Fold change /veh RASL12 (11751679_a_at) / RFU CDKN2B (11736163_a_at) / Fold change /veh CDKN2B (11736163_a_at) / RFU PRF1 (11729649_at) / Fold change /veh PRF1 (11729649_at) / RFU, ZNF638 /// ZNF638-IT1 / Fold change vs veh, ZNF638 /// ZNF638-IT1 / RFU, PANK3 / Fold change vs veh, PANK3 / RFU, SH3YL1 / Fold change vs veh, SH3YL1 / RFU, ZEB2 / Fold change vs veh, ZEB2 / RFU, NRIP1 / Fold change vs veh, NRIP1 / RFU, PTTG1IP / Fold change vs veh, PTTG1IP / RFU, CAPN2 / Fold change vs veh, CAPN2 / RFU, MED14 / Fold change vs veh, MED14 / RFU, SNORA58 / Fold change vs veh, SNORA58 / RFU, C1orf63 / Fold change vs veh, C1orf63 / RFU, LRRFIP1 / Fold change vs veh, LRRFIP1 / RFU, NDUFAF7 / Fold change vs veh, NDUFAF7 / RFU, SLC12A2 / Fold change vs veh, SLC12A2 / RFU, IBTK / Fold change vs veh, IBTK / RFU, ESF1 / Fold change vs veh, ESF1 / Fold change vs veh, TMEM50B / RFU, TAOK1 / Fold change vs veh, TAOK1 / RFU, ACBD3 / Fold change vs veh, ACBD3 / RFU, TMA16 / Fold change vs veh, TMA16 / RFU, RWDD3 / Fold change vs veh, RWDD3 / RFU, BCAT1 / Fold change vs veh, BCAT1 / RFU, EDEM3 / Fold change vs veh, EDEM3 / RFU, TMEM33 / Fold change vs veh, TMEM33 / RFU, WDR75 / Fold change vs veh, WDR75 / RFU, AHCTF1 / Fold change vs veh, AHCTF1 / RFU, TFRC / Fold change vs veh, TFRC / RFU, ZDHHC17 / Fold change vs veh, ZDHHC17 / RFU, NOM1 / Fold change vs veh, NOM1 / RFU, ARL8B / Fold change vs veh, ARL8B / RFU, ZBTB11 / Fold change vs veh, ZBTB11 / RFU, TAMM41 / Fold change vs veh, TAMM41 / RFU, KIAA1704 /// LOC100996395 / Fold change vs veh, KIAA1704 /// LOC100996395 / RFU, ING1 / Fold change vs veh, ING1 / RFU, TRMT61B / Fold change vs veh, TRMT61B / RFU, FUBP3 / Fold change vs veh, FUBP3 / RFU, TP53 / Fold change vs veh, TP53 / RFU, TNKS2 / Fold change vs veh, TNKS2 / RFU, ZFP14 / Fold change vs veh, ZFP14 / RFU, ACTR2 / Fold change vs veh, ACTR2 / RFU, PPP3R1 / Fold change vs veh, PPP3R1 / RFU, PIK3R1 / Fold change vs veh, PIK3R1 / RFU, HNRNPA1 / Fold change vs veh, HNRNPA1 / RFU, RNF170 / Fold change vs veh, RNF170 / RFU, ZNF28 / Fold change vs veh, ZNF28 / RFU, RNGTT / Fold change vs veh, RNGTT / RFU, OGT / Fold change vs veh, OGT / RFU, BRD1 / Fold change vs veh, BRD1 / RFU, MARS / Fold change vs veh, MARS / RFU, ZNF655 / Fold change vs veh, ZNF655 / RFU, FAHD1 / Fold change vs veh, FAHD1 / RFU, BDP1 / Fold change vs veh, BDP1 / RFU, LRRCC1 / Fold change vs veh, LRRCC1 / RFU, ARID1A / Fold change vs veh, ARID1A / RFU, ZNF146 / Fold change vs veh, ZNF146 / RFU, ZNF330 / Fold change vs veh, ZNF330 / RFU, GPN3 / Fold change vs veh, GPN3 / RFU, C9orf123 / Fold change vs veh, C9orf123 / RFU, N4BP2L2 / Fold change vs veh, N4BP2L2 / RFU, ARFIP1 / Fold change vs veh, ARFIP1 / RFU, FAM179B / Fold change vs veh, FAM179B / RFU, BCL10 / Fold change vs veh, BCL10 / RFU, UHRF1BP1L / Fold change vs veh, UHRF1BP1L / RFU, BET1 / Fold change vs veh, BET1 / RFU, CNOT2 / Fold change vs veh, CNOT2 / RFU, ZNF268 / Fold change vs veh, ZNF268 / Fold change vs veh, ZNF507 / RFU, DGCR2 / Fold change vs veh, DGCR2 / RFU, WDSUB1 / Fold change vs veh, WDSUB1 / Fold change vs veh, HSP90B1 /// MIR3652 / RFU, ADSS / Fold change vs veh, ADSS / RFU, GK / Fold change vs veh, GK / RFU, ZNF148 / Fold change vs veh, ZNF148 / RFU, TAF9 / Fold change vs veh, TAF9 / RFU, SLC1A5 / Fold change vs veh, SLC1A5 / RFU, SLMO2 / Fold change vs veh, SLMO2 / RFU, ABCC4 / Fold change vs veh, ABCC4 / RFU, LOC101060439 /// RAP1B / Fold change vs veh, LOC101060439 /// RAP1B / RFU, RFX7 / Fold change vs veh, RFX7 / RFU, GTPBP10 / Fold change vs veh, GTPBP10 / RFU, CNEP1R1 / Fold change vs veh, CNEP1R1 / RFU, BIVM-ERCC5 /// ERCC5 / Fold change vs veh, BIVM-ERCC5 /// ERCC5 / RFU, ILF3 / Fold change vs veh, ILF3 / RFU 11762660_at / Fold change /veh 11762660_at / RFU VCAN (11757783_s_at) / Fold change /veh VCAN (11757783_s_at) / RFU DDX43 (11728927_at) / Fold change /veh DDX43 (11728927_at) / RFU KRT8 (11758188_x_at) / Fold change /veh KRT8 (11758188_x_at) / RFU NKD1 (11759106_at) / Fold change /veh NKD1 (11759106_at) / RFU SRD5A1 (11742802_a_at) / Fold change /veh SRD5A1 (11742802_a_at) / RFU TPSAB1 /// TPSB2 (11721975_s_at) / Fold change /veh TPSAB1 /// TPSB2 (11721975_s_at) / RFU GSTM3 (11746129_a_at) / Fold change /veh GSTM3 (11746129_a_at) / RFU IL23R (11737362_x_at) / Fold change /veh IL23R (11737362_x_at) / RFU TMEM51 (11727254_a_at) / Fold change /veh TMEM51 (11727254_a_at) / RFU PIWIL2 (11732686_x_at) / Fold change /veh PIWIL2 (11732686_x_at) / RFU ORM1 (11744905_x_at) / Fold change /veh ORM1 (11744905_x_at) / RFU CCDC152 (11743942_at) / Fold change /veh CCDC152 (11743942_at) / RFU ECM1 (11717891_a_at) / Fold change /veh ECM1 (11717891_a_at) / RFU IL23R (11748794_a_at) / Fold change /veh IL23R (11748794_a_at) / RFU TNFAIP8L3 (11732012_x_at) / Fold change /veh TNFAIP8L3 (11732012_x_at) / RFU MBOAT4 (11741988_at) / Fold change /veh MBOAT4 (11741988_at) / RFU 11764193_at / Fold change /veh 11764193_at / RFU TMEM53 (11763286_at) / Fold change /veh TMEM53 (11763286_at) / RFU MAGEB2 (11727129_at) / Fold change /veh MAGEB2 (11727129_at) / RFU TMEM200A (11744735_a_at) / Fold change /veh TMEM200A (11744735_a_at) / RFU CCDC152 (11751479_a_at) / Fold change /veh CCDC152 (11751479_a_at) / RFU FAM211A (11726209_a_at) / Fold change /veh FAM211A (11726209_a_at) / RFU RGS16 (11746705_a_at) / Fold change /veh RGS16 (11746705_a_at) / RFU VCAN (11755009_s_at) / Fold change /veh VCAN (11755009_s_at) / RFU RHOB (11743442_s_at) / Fold change /veh RHOB (11743442_s_at) / RFU RGS16 (11720943_a_at) / Fold change /veh RGS16 (11720943_a_at) / RFU RGS16 (11720944_at) / Fold change /veh RGS16 (11720944_at) / RFU, VPS4B / Fold change vs veh, VPS4B / RFU, CREB1 / Fold change vs veh, CREB1 / RFU, DNAJC13 / Fold change vs veh, DNAJC13 / RFU, GNAQ / Fold change vs veh, GNAQ / RFU, CDK5R1 / Fold change vs veh, CDK5R1 / RFU, ZRANB3 / Fold change vs veh, ZRANB3 / RFU, CUL4A / Fold change vs veh, CUL4A / RFU, CCNY / Fold change vs veh, CCNY / RFU, UFL1 / Fold change vs veh, UFL1 / RFU, COG3 / Fold change vs veh, COG3 / RFU, DIAPH2 / Fold change vs veh, DIAPH2 / RFU, SKA2 / Fold change vs veh, SKA2 / RFU, AFF3 / Fold change vs veh, AFF3 / RFU, LMF1 / Fold change vs veh, LMF1 / RFU, IPO11 / Fold change vs veh, IPO11 / RFU, DFFB / Fold change vs veh, DFFB / RFU, FOXP1 / Fold change vs veh, FOXP1 / RFU, CARD8 / Fold change vs veh, CARD8 / RFU, STRN3 / Fold change vs veh, STRN3 / RFU, ADK / Fold change vs veh, ADK / RFU, RASSF2 / Fold change vs veh, RASSF2 / RFU, WIPF1 / Fold change vs veh, WIPF1 / RFU, LARP1B / Fold change vs veh, LARP1B / RFU, RASA1 / Fold change vs veh, RASA1 / RFU, RB1 / Fold change vs veh, RB1 / RFU, PPFIA1 / Fold change vs veh, PPFIA1 / RFU, MAT2A / Fold change vs veh, MAT2A / RFU, CCT5 / Fold change vs veh, CCT5 / RFU, WDR92 / Fold change vs veh, WDR92 / RFU, CUX1 / Fold change vs veh, CUX1 / RFU, TTC7A / Fold change vs veh, TTC7A / RFU, TMEM135 / Fold change vs veh, TMEM135 / RFU, DEPTOR / Fold change vs veh, DEPTOR / RFU, CPM / Fold change vs veh, CPM / RFU, DNAJB6 / Fold change vs veh, DNAJB6 / RFU, CACNA2D3 / Fold change vs veh, CACNA2D3 / RFU, DTX4 / Fold change vs veh, DTX4 / RFU, TFCP2 / Fold change vs veh, TFCP2 / RFU, GMCL1 /// GMCL1P1 / Fold change vs veh, GMCL1 /// GMCL1P1 / RFU, AEBP2 / Fold change vs veh, AEBP2 / RFU, SNHG1 /// SNORD22 /// SNORD25 /// SNORD26 /// SNORD27 /// SNORD28 /// SNORD29 /// SNORD31 / Fold change vs veh, SNHG1 /// SNORD22 /// SNORD25 /// SNORD26 /// SNORD27 /// SNORD28 /// SNORD29 /// SNORD31 / Fold change (Aza/veh), C12orf56 (ProbeSet 11735607_a_at) / Fold change (ACY-1035/veh), C12orf56 (ProbeSet 11735607_a_at) / Fold change (Aza/veh), FGFR1OP (ProbeSet 11751329_s_at) / Fold change (ACY-1035/veh), FGFR1OP (ProbeSet 11751329_s_at) / Fold change (Aza/veh), VPS36 (ProbeSet 11739960_a_at) / Fold change (ACY-1035/veh), VPS36 (ProbeSet 11739960_a_at) / RFU SYPL1 (11715823_x_at) / Fold change /veh SYPL1 (11715823_x_at) / RFU IGFBP7 (11715501_s_at) / Fold change /veh IGFBP7 (11715501_s_at) / RFU REEP3 (11722064_at) / Fold change /veh REEP3 (11722064_at) / RFU IGLL1 (11728026_x_at) / Fold change /veh IGLL1 (11728026_x_at): dose or concentration left out as unconfirmed
Details: ProbeSet 11721969_s_at; LIST B

## Nc1ccc(-c2cccs2)cc1NC(=O)c1ccc2c(c1)cc(C1CC1)n2CCN1CCOCC1 [ACY-1035]
  Fold change vs veh, BDP1: 0.84
